In patent US20210255193A1, “LYSINE REACTIVE PROBES AND USES THEREOF” (The Scripps Research Institute, priority 2017, published 2021):

Tests used:
Test in all cases: competitive isoTOP-ABPP
Type in all cases: binding
[1] = target: T1, NAA25 N-alpha-acetyltransferase 25, NatB auxiliary subunit (Homo sapiens, UniProt Q14CX7); settings: 50 uM, in vitro; for isoTOP-ABPP ratio (R) at liganded lysine Q14CX7_K575: sol, 231
T1 construct: isoTOP-ABPP experiments performed in cell lysates (in vitro); endogenous in cells; host or cells: soluble proteome of human cancer cell lines (MDA-MB-231; Ramos and Jurkat also prepared)
T1 sequence (Q14CX7 whole entry): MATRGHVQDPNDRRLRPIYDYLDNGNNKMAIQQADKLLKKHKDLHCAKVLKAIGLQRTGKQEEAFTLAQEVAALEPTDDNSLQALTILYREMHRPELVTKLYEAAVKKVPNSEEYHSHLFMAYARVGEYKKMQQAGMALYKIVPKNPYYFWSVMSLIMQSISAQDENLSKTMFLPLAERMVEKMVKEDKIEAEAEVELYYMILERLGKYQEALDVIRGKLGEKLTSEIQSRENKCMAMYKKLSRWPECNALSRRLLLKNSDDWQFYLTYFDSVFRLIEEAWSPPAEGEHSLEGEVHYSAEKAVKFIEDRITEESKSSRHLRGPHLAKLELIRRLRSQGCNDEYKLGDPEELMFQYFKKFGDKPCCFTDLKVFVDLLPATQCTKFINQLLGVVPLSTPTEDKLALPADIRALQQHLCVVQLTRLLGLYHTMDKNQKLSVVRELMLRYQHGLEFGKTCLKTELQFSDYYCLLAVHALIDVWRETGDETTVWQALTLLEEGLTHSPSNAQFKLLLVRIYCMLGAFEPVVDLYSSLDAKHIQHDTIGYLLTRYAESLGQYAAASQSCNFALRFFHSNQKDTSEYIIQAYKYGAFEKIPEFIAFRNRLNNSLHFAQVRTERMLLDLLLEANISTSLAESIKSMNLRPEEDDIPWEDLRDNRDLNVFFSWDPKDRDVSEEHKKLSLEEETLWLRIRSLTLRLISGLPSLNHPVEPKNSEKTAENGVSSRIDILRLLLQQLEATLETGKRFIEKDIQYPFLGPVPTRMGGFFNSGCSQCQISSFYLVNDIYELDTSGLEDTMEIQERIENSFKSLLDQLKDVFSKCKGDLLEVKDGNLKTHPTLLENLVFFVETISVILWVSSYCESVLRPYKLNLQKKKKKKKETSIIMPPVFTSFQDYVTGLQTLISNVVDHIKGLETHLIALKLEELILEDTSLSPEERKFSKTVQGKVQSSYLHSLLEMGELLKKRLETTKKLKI
Procedure: (§1) In vitro covalent fragment treatment for isoTOP-ABPP. All compounds were made up as solutions in DMSO (100×) and were used at a final concentration of 50 μM for activated esters and 100 μM for guanidinylating agents. For each profiling sample, 0.5 ml of lysate was treated with 5 μl of the 100× compound stock solution or 5 μl of DMSO. Samples were treated with activated esters for
(§2) STP-alkyne labeling and click chemistry. For concentration-dependent reactivity measurements by isoTOP-ABPP, 0.5 ml proteome aliquots were treated at ambient temperature with 1 mM STP-alkyne 1 (5 μl of 100 mM stock in DMSO) and 0.1 mM STP alkyne 1 (5 μl of 10 mM stock in DMSO), respectively. For competitive isoTOP-ABPP, after in vitro fragment treatment (detailed above), the samples were labeled for 1 h at ambient temperature with 0.1 mM STP-alkyne 1 (5 μl of 10 mM stock in DMSO). Samples were conjugated by copper-mediated azide-alkyne cycloaddition (CuAAC) to either the light (1 mM STP-alkyne or fragment treated) or heavy (0.1 mM STP-alkyne or DMSO treated) TEV tags (10 μl of 5 mM stocks in DMSO, final concentration=100 μM) using tris(2-carboxyethyl)phosphine hydrochloride
(§3) R value calculation and processing. The ratios of light and heavy MS1 peaks for each unique peptide were quantified with a CIMAGE software using default parameters (3 MS1 acquisitions per peak and signal to noise threshold set to 2.5). For reactivity measurements by isoTOP-ABPP, the R value was calculated from the ratio of MS1 peak areas, comparing the 1 mM STP alkyne sample (light TEV tag) with the 0.1 mM STP alkyne sample (heavy TEV tag). For competitive isoTOP-ABPP, the R value was calculated from the ratio of MS1 peak areas, comparing the DMSO treated sample (heavy TEV tag) with the compound treated sample (light TEV tag). […] Ratios for unique peptide entries are calculated for each experiment; overlapping peptides with the same modified lysine (for example, different charge states, MudPIT chromatographic steps or tryptic termini) are grouped together and the median ratio is reported as the final ratio (R). The peptide ratios reported by CIMAGE were further filtered to ensure the removal or correction of low-quality ratios in each individual data set. The quality filters applied were the following: removal of half tryptic peptides; for ratios with high standard deviations from the median (90% of the median or above) the lowest ratio was taken instead of the median; removal of peptides with R=20 and only a single MS2 event triggered during the elution of the parent ion; manual annotation of all the peptides with ratios of 20, removing any peptides with low quality elution profiles that remained after the previous curation steps (only done for competitive isoTOP-ABPP).
(§4) Cross-data processing for fragment screening. For compound treated samples, biological replicates of the same condition were averaged, if the standard deviation was below 60% of the mean; otherwise, for lysines with at least one R value <4 for a particular compound, the lowest value of the ratio set was taken. For lysines, where all R values for a particular compound were ≥4, the average was reported. For peptides containing several possible modified lysines, the lysine with the highest number of quantification events was used for analysis and the remaining, redundant peptides were reported as alternative modification sites. Peptides included in the aggregate dataset (those used for further bioinformatics and statistical analyses) were required to have been quantified in 2 experiments for competitive isoTOP-ABPP. Lysines were categorized as liganded, if they had at least one ratio R≥4 (hit fragments). For liganded lysines with R=20 for all liganding events, lysines were required to have been quantified with R=20 in two separate experiments and were further required to have been quantified with R<20 in one additional experiment.

[2] = target: T2, LMNA Prelamin-A/C (Homo sapiens, UniProt P02545); settings: for isoTOP-ABPP ratio (R) at liganded lysine P02545_K135: 50 uM, in vitro, sol, 231; for isoTOP-ABPP ratio, lysine P02545_K135: 50 uM_231_sol_in vitro
T2 construct: isoTOP-ABPP experiments performed in cell lysates (in vitro); endogenous in cells; host or cells: MDA-MB-231 soluble lysate
T2 sequence (P02545 1-664): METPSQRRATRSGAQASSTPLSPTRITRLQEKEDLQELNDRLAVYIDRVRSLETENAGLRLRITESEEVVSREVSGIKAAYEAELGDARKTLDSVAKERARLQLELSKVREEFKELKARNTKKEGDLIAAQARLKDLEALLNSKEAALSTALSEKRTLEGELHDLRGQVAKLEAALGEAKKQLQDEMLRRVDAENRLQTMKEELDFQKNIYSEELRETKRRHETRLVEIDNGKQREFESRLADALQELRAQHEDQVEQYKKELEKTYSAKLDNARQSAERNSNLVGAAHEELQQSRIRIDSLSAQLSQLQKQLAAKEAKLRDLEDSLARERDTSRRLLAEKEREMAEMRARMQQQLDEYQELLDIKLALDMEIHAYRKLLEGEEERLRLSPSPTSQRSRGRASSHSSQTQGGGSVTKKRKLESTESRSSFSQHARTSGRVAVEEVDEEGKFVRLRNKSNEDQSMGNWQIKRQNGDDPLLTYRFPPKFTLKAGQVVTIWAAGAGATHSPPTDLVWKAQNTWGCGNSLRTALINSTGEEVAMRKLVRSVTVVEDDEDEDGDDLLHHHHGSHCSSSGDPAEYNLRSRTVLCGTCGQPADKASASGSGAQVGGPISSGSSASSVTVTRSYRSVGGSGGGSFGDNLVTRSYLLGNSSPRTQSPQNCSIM
Procedure: as §1, §2, §3, §4

[3] = target: T3, UCHL5 Ubiquitin carboxyl-terminal hydrolase isozyme L5 (Homo sapiens, UniProt Q9Y5K5); settings: for isoTOP-ABPP ratio (R) at liganded lysine Q9Y5K5_K323: sol, 231; for isoTOP-ABPP ratio, lysine Q9Y5K5_K323: 50 uM_231_sol_in vitro
T3 construct: endogenous in cells; host or cells: MDA-MB-231 (soluble fraction of lysate)
T3 sequence (Q9Y5K5 1-329): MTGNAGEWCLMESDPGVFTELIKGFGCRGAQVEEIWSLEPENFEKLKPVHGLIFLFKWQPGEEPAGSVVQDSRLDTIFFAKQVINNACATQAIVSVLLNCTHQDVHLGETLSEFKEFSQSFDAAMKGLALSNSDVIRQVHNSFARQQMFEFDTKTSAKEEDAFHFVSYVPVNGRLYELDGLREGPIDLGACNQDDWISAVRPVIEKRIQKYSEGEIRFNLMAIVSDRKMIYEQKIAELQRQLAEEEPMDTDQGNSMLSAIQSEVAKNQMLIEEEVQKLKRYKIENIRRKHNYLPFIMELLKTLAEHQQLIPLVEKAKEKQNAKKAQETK
Procedure: as §1, §2, §3, §4

[4] = target: T4, ERAP1 Endoplasmic reticulum aminopeptidase 1 (Homo sapiens, UniProt Q9NZ08); settings: for isoTOP-ABPP ratio (R) at liganded lysine Q9NZ08_K685: sol, 231; for isoTOP-ABPP ratio, lysine Q9NZ08_K685: 50 uM_231_sol_in vitro
T4 construct: endogenous in cells; host or cells: MDA-MB-231 lysate
T4 sequence (Q9NZ08 whole entry): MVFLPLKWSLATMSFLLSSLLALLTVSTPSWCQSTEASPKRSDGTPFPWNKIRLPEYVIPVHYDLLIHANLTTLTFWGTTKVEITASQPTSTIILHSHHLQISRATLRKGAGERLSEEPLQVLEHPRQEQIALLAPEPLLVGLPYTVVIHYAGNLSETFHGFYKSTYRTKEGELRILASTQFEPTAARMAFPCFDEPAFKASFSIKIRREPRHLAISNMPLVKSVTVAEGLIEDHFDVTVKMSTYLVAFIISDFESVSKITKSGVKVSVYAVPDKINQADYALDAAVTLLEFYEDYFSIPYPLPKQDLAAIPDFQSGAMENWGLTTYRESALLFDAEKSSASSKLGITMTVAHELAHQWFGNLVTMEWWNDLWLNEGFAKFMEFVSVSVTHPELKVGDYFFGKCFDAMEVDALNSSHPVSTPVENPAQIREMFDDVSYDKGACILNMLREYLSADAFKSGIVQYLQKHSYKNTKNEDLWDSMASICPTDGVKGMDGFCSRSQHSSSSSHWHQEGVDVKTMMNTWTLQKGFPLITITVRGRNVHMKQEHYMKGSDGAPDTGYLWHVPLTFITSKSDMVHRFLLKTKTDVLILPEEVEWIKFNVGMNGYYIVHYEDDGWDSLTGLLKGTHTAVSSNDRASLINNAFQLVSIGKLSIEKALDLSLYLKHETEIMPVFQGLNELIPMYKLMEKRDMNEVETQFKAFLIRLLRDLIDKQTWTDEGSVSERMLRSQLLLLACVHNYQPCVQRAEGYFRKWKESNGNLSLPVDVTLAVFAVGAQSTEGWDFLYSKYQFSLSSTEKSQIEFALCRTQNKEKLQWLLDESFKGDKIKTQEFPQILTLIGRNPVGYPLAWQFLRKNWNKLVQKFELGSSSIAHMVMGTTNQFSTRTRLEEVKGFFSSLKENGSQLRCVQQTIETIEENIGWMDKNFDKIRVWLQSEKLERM
Procedure: as §1, §2, §3, §4

| SMILES | isoTOP-ABPP ratio (R) at liganded lysine P02545_K135 [2] | isoTOP-ABPP ratio (R) at liganded lysine Q9Y5K5_K323 ([3]; 50 uM, in vitro) | isoTOP-ABPP ratio (R) at liganded lysine Q9NZ08_K685 ([4]; 50 uM, in vitro) | also measured |
| --- | --- | --- | --- | --- |
| O=C(CCc1coc2cc(F)ccc2c1=O)Oc1ccc([N+](=O)[O-])cc1[N+](=O)[O-] [fragment 36, 2,4-Dinitrophenyl 3-(7-fluoro-4-oxo-4H-chromen-3-yl)propanoate] | 0.8 | 0.8 | 1.1 | isoTOP-ABPP ratio (R) at liganded lysine Q14CX7_K575 [1]: 1.5 |
| O=C(Oc1ccc([N+](=O)[O-])cc1[N+](=O)[O-])C(c1ccccc1)(c1ccccc1)c1ccccc1 [fragment 42, 2,4-Dinitrophenyl 2,2,2-triphenylacetate] | 1.0 | 1.0 | 1.0 | – |
| O=C(CCc1coc2cc(F)ccc2c1=O)Oc1c(F)c(F)c(F)c(F)c1F [fragment 26, Pentafluorophenyl 3-(7-fluoro-4-oxo-4H-chromen-3-yl)propanoate] | – | – | – | isoTOP-ABPP reactivity ratio at lysine Q14CX7_K575 ([1]; 231 sol): 0.9; isoTOP-ABPP reactivity ratio at lysine Q9Y5K5_K323 ([3]; 50 uM, 231 sol, in vitro): 1.1; isoTOP-ABPP reactivity ratio at lysine Q9NZ08_K685 ([4]; 50 uM, 231 sol, in vitro): 1.2 |
| O=C(Oc1ccc([N+](=O)[O-])cc1[N+](=O)[O-])c1ccccc1Nc1cccc(C(F)(F)F)c1 [fragment 40, 2,4-Dinitrophenyl 2-((3-(trifluoromethyl)phenyl)amino)benzoate] | 1.2 | 1.0 | 1.1 | isoTOP-ABPP ratio (R) at liganded lysine Q14CX7_K575 [1]: 0.8 |
| O=C(Oc1ccc([N+](=O)[O-])cc1[N+](=O)[O-])C1CCN(C(=O)OCc2ccccc2)CC1 [fragment 34, 1-Benzyl 4-(2,4-dinitrophenyl) piperidine-1,4-dicarboxylate] | 1.2 | 0.9 | 1.7 | – |
| O=C(Oc1c(F)c(F)c(C(F)(F)F)c(F)c1F)c1cc(C(F)(F)F)cc(C(F)(F)F)c1 [fragment 47, 2,3,5,6-Tetrafluoro-4-(trifluoromethyl)phenyl 3,5-bis(trifluoromethyl)benzoate] | – | – | – | isoTOP-ABPP ratio, lysine P02545_K135 [2]: 1.2; isoTOP-ABPP ratio, lysine Q9Y5K5_K323 [3]: 1.4; isoTOP-ABPP ratio, lysine Q9NZ08_K685 [4]: 1.3 |
| O=C(CC12CC3CC(CC(C3)C1)C2)Oc1ccc([N+](=O)[O-])cc1[N+](=O)[O-] [fragment 38, 2,4-Dinitrophenyl 2-(adamantan-1-yl)acetate] | 0.8 | 0.9 | 1.0 | – |
| O=C(ON1C(=O)CCC1=O)c1cc(C(F)(F)F)cc(C(F)(F)F)c1 [fragment 46, 3,5-Bis(trifluoromethyl)benzoic acid NHS ester] | – | – | – | isoTOP-ABPP ratio, lysine P02545_K135 [2]: 0.7; isoTOP-ABPP ratio, lysine Q9Y5K5_K323 [3]: 1.0; isoTOP-ABPP ratio, lysine Q9NZ08_K685 [4]: 2.1 |
